TGI data for two compounds are collected here from PubChem BioAssay (NCI).

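Protocol summary: plate cells (96-well), add compound at 5 concentrations, incubate 48 h, interpolate endpoints linearly. Definition used: TGI = concentration required for complete inhibition of growth.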 A value given as a limit tells only on which side of the number the result lay.

Some test systems named below: A549 NSCLC; RXF 393 renal; UACC-257 melanoma; OVCAR-4 ovarian; SK-MEL-28 melanoma; MDA-MB-435; OVCAR-8 ovarian; NCI/ADR-RES ovarian; SK-OV-3 ovarian; UO-31 renal; MOLT-4 leukemia; SF-295 CNS; MALME-3M melanoma; NCI-H460 lung; COLO 205 colon.
Common to all, as to assay: growth of human tumour cells (NCI), 48 h

As to `CC(=O)OC(C#N)CC(C)(C)/[N+]([O-])=[N+](\[O-])C(C)(C)CC(C#N)OC(C)=O` (stereo not given), the TGI with A549 NSCLC was over 100 µM; with RXF 393 renal it was 27.4 µM; with UACC-257 melanoma, 37.8 µM; in the assay on OVCAR-4 ovarian, 33.9 µM; in the assay on SK-MEL-28 melanoma, 96.4 µM; in the assay on MDA-MB-435 it was 33.8 µM. Besides, the TGI in the assay on OVCAR-8 ovarian is 73.3 µM; in the assay on NCI/ADR-RES ovarian, 79.3 µM; in the assay on SK-OV-3 ovarian, over 100 µM; in the assay on UO-31 renal, 63.6 µM; in the assay with MOLT-4 leukemia, 26.3 µM; in the assay on SF-295 CNS, 80.8 µM. Also, the TGI with MALME-3M melanoma is 47.4 µM; in the assay with NCI-H460 lung, 35 µM; in the assay on COLO 205 colon it was 32 µM.

As for `COC(=O)C(CCSc1ccccc1)C(=O)OC`, the TGI in the assay on A549 NSCLC, in the assay with RXF 393 renal, with UACC-257 melanoma, in the assay on OVCAR-4 ovarian, in the assay with SK-MEL-28 melanoma and in the assay on MDA-MB-435 was over 100 µM throughout. Also, the TGI in the assay with OVCAR-8 ovarian, in the assay with NCI/ADR-RES ovarian, in the assay with SK-OV-3 ovarian, in the assay on UO-31 renal, with MOLT-4 leukemia and in the assay with SF-295 CNS was over 100 µM each time. The TGI in the assay with MALME-3M melanoma, in the assay on NCI-H460 lung and in the assay on COLO 205 colon was over 100 µM throughout.
